≈ marks a conversion by molar mass, not a printed value.
What was measured:
[1] = Inhibition of rat liver NADH:cytochrome bc1 reductase
[2] = Inhibition of Candida albicans MY1055 NADH:cytochrome bc1 reductase
[3] = test system: Candida albicans; experiment: Antifungal activity against Candida albicans MY1055 assessed as growth inhibition after 24 hrs by liquid microdilution assay; type: functional; conditions: MY1055, 24 h

Compound | IC50 [1] [µg/mL] | IC50 [2] [µg/mL] | MIC [3] [µg/mL]
C/C=C/[C@@H]1[C@H]2C[C@@H](COC(C)=O)CC[C@@H]2C(C)=C[C@H]1C(=O)c1c(O)c(-c2ccc(O)cc2)c[nH]c1=O | > 1.6 | 0.0021 (≈ 0.00427 µM) | 0.5 (≈ 1.02 µM)
C/C=C/[C@@H]1[C@H]2C[C@@H](C)CC[C@@H]2C(C)=C[C@H]1C(=O)c1c(O)c(-c2ccc(OCC(=O)OC(C)(C)C)cc2)cn(CC(=O)OC(C)(C)C)c1=O | 1.6 (≈ 2.42 µM) | > 1.6 | > 5
C/C=C/[C@@H]1[C@H]2C[C@@H](C)CC[C@@H]2C(C)=C[C@H]1C(=O)c1c(O)c(-c2ccc(OC(=O)C3CCC3)cc2)c[nH]c1=O | > 0.8 | 0.002 (≈ 0.00388 µM) | 0.062 (≈ 0.12 µM)
C/C=C/[C@@H]1[C@H]2C[C@@H](C)CC[C@@H]2C(C)=C[C@H]1C(=O)c1c(O)c(-c2ccc(OC(=O)C3CCCC3)cc2)c[nH]c1=O | > 0.8 | 0.01 (≈ 0.0189 µM) | 1 (≈ 1.89 µM)
C/C=C/[C@@H]1[C@H]2C[C@@H](C)CC[C@@H]2C(C)=C[C@H]1C(=O)c1c(O)c(-c2ccc(OC(=O)C3CCCCC3)cc2)c[nH]c1=O | > 1.6 | 0.4 (≈ 0.736 µM) | > 1
C/C=C/[C@@H]1[C@H]2C[C@@H](C)CC[C@@H]2C(C)=C[C@H]1C(=O)c1c(O)c(-c2ccc(O)cc2)cn(C)c1=O | 0.25 (≈ 0.559 µM) | 0.0016 (≈ 0.00357 µM) | 0.25 (≈ 0.559 µM)
C/C=C/[C@@H]1[C@H]2C[C@@H](C)CC[C@@H]2[C@](C)(I)[C@H]2Oc3ncc(-c4ccc(O)c(I)c4)c(O)c3C(=O)[C@@H]12 | – | – | > 5
C/C=C/[C@@H]1[C@H]2C[C@@H](C)CC[C@@H]2C(C)=C[C@H]1C(=O)c1c(O)c(-c2ccc(O)cc2)cn(CC)c1=O | – | – | 0.312 (≈ 0.676 µM)
C/C=C/[C@@H]1[C@H]2C[C@@H](C)CC[C@@H]2[C@](C)(Br)[C@H]2Oc3ncc(-c4ccc(O)c(Br)c4Br)c(O)c3C(=O)[C@@H]12 | 1 (≈ 1.49 µM) | 1 (≈ 1.49 µM) | > 5
C/C=C/[C@@H]1[C@H]2C[C@@H](C)CC[C@@H]2C(C)=C[C@H]1C(=O)c1c(O)c(-c2ccc(OCC#N)cc2)cn(CC#N)c1=O | – | 0.1 (≈ 0.195 µM) | 1 (≈ 1.95 µM)
C/C=C/[C@@H]1[C@H]2C[C@@H](CO)CC[C@@H]2C(C)=C[C@H]1C(=O)c1c(O)c(-c2ccc(OC(C)=O)cc2)c[nH]c1=O | > 0.8 | 0.16 (≈ 0.325 µM) | 0.5 (≈ 1.02 µM)
C/C=C/[C@@H]1[C@H]2C[C@@H](C)CC[C@@H]2C(C)=C[C@H]1C(=O)c1c(O)c(-c2ccc(OC(=O)C3CC3)cc2)c[nH]c1=O | > 0.8 | 0.015 (≈ 0.0299 µM) | 0.062 (≈ 0.124 µM)
C/C=C/[C@@H]1[C@H]2C[C@@H](C)CC[C@@H]2C(C)=C[C@H]1C(=O)c1c(O)c(-c2ccc(OC)cc2)c[nH]c1=O | 0.2 (≈ 0.447 µM) | 0.003 (≈ 0.0067 µM) | 0.25 (≈ 0.559 µM)
C/C=C/[C@@H]1[C@H]2C[C@@H](C)CC[C@@H]2C(C)=C[C@H]1C(=O)c1c(O)c(-c2ccc(OC(=O)c3ccccc3)cc2)c[nH]c1=O | 1 (≈ 1.86 µM) | 0.008 (≈ 0.0149 µM) | 1 (≈ 1.86 µM)
C/C=C/[C@@H]1[C@H]2C[C@@H](C)CC[C@@H]2C(C)=C[C@H]1C(=O)c1c(O)c(-c2ccc(O)cc2)cn(CC(=O)O)c1=O | 1 (≈ 2.03 µM) | > 1 | > 5
C/C=C/[C@@H]1[C@H]2C[C@@H](C)CC[C@@H]2C(C)=C[C@H]1C(=O)c1c(O)c(-c2ccc(OC(=O)/C=C/c3ccsc3)cc2)c[nH]c1=O | > 1 | 0.5 (≈ 0.878 µM) | 1 (≈ 1.76 µM)
C/C=C/[C@@H]1[C@H]2C[C@@H](C)CC[C@@H]2C(C)=C[C@H]1C(=O)c1c(OC)ncc(-c2ccc(O)cc2)c1O | > 1 | 0.02 (≈ 0.0447 µM) | > 1
C=CCn1cc(-c2ccc(O)cc2)c(O)c(C(=O)[C@@H]2C=C(C)[C@H]3CC[C@H](C)C[C@@H]3[C@H]2/C=C/C)c1=O | 1 (≈ 2.11 µM) | 0.008 (≈ 0.0169 µM) | 1 (≈ 2.11 µM)
C/C=C/[C@@H]1[C@H]2C[C@@H](C)CC[C@@H]2C(C)=C[C@H]1C(=O)c1c(O)c(-c2ccc(OCC)cc2)c[nH]c1=O | 1 (≈ 2.17 µM) | 1 (≈ 2.17 µM) | > 5
C/C=C/[C@@H]1[C@H]2C[C@@H](C)CC[C@@H]2C(C)=C[C@H]1C(=O)c1c(O)c(-c2ccc(OC(=O)c3ccoc3)cc2)c[nH]c1=O | > 1 | 0.0105 (≈ 0.0199 µM) | 0.0625 (≈ 0.118 µM)
C/C=C/[C@@H]1[C@H]2C[C@@H](C)CC[C@@H]2C(C)=C[C@H]1C(=O)c1c(O)c(-c2ccc(OC(=O)CCCCNC(=O)OC(C)(C)C)cc2)c[nH]c1=O | > 1 | 0.005 (≈ 0.0079 µM) | 0.25 (≈ 0.395 µM)
C/C=C/[C@@H]1[C@H]2C[C@@H](C)CC[C@@H]2C(C)=C[C@H]1C(=O)c1c(O)c(-c2ccc(O)cc2)cn(CC#N)c1=O | 0.8 (≈ 1.69 µM) | 0.001 (≈ 0.00212 µM) | 0.062 (≈ 0.131 µM)

Compound | IC50 [1] [µg/mL] | IC50 [2] [µg/mL] | MIC [3] [µg/mL]
CC1O[C@H]1[C@@H]1[C@H]2C[C@@H](C)CC[C@@H]2[C@](C)(O)[C@H]2Oc3ncc(-c4ccc(O)cc4)c(O)c3C(=O)[C@@H]12 (stereo partly drawn) | 1 (≈ 2.15 µM) | > 1 | > 5
C/C=C/[C@@H]1[C@H]2C[C@@H](COC(=O)C3CC3)CC[C@@H]2C(C)=C[C@H]1C(=O)c1c(O)c(-c2ccc(OC(=O)C3CC3)cc2)c[nH]c1=O | 0.01 (≈ 0.0171 µM) | 0.0008 (≈ 0.00137 µM) | > 5
C/C=C/[C@@H]1[C@H]2C[C@@H](C)CC[C@@H]2C(C)=C[C@H]1C(=O)c1c(O)c(-c2ccc(OCC(=O)O)cc2)cn(CC(=O)O)c1=O | 1 (≈ 1.82 µM) | > 1 | > 5
C/C=C/[C@@H]1[C@H]2C[C@@H](C)CC[C@@H]2C(C)=C[C@H]1C(=O)c1c(O)c(-c2ccc(OC(=O)C/C=C/c3ccccc3)cc2)c[nH]c1=O | 1.6 (≈ 2.77 µM) | 0.02 (≈ 0.0346 µM) | 0.312 (≈ 0.54 µM)
C/C=C/[C@@H]1[C@H]2C[C@@H](C)CC[C@@H]2[C@](C)(Br)[C@H]2Oc3ncc(-c4ccc(O)cc4)c(O)c3C(=O)[C@@H]12 | 1 (≈ 1.95 µM) | > 1 | > 5
C/C=C/[C@@H]1[C@H]2C[C@@H](C)CC[C@@H]2C(C)=C[C@H]1C(=O)c1c(O)c(-c2ccc(OC(=O)CNC(=O)OCC3c4ccccc4-c4ccccc43)cc2)c[nH]c1=O | 1 (≈ 1.4 µM) | 0.006 (≈ 0.00842 µM) | 0.125 (≈ 0.175 µM)
C/C=C/[C@@H]1[C@H]2C[C@@H](C)CC[C@@H]2C(C)=C[C@H]1C(=O)c1c(O)c(-c2ccc(OCC(N)=O)cc2)cn(CC(N)=O)c1=O | > 1 | 0.2 (≈ 0.365 µM) | > 1
C/C=C/[C@@H]1[C@H]2C[C@@H](C)CC[C@@H]2C(C)=C[C@H]1C(=O)c1c(O)c(-c2ccc(OC(=O)Cc3ccccc3)cc2)c[nH]c1=O | 1 (≈ 1.81 µM) | 0.0005 (≈ 0.000906 µM) | 0.25 (≈ 0.453 µM)
C/C=C/[C@@H]1[C@H]2C[C@@H](C)CC[C@@H]2C(C)=C[C@H]1C(=O)c1c(O)c(-c2ccc(O)cc2)cn(CC(=O)OC(C)(C)C)c1=O | 1.6 (≈ 2.92 µM) | > 1.6 | > 5
C/C=C/[C@@H]1[C@H]2C[C@@H](C)CC[C@@H]2C(C)=C[C@H]1C(=O)c1c(O)c(-c2ccc(O)cc2)cn(CC(N)=O)c1=O | – | 0.04 (≈ 0.0815 µM) | 0.031 (≈ 0.0632 µM)
C/C=C/[C@@H]1[C@H]2C[C@@H](C)CC[C@@H]2[C@](C)(I)[C@H]2Oc3ncc(-c4ccc(O)cc4)c(O)c3C(=O)[C@@H]12 | 1 (≈ 1.79 µM) | 1 (≈ 1.79 µM) | > 5
C/C=C/[C@@H]1[C@H]2C[C@@H](C)CC[C@@H]2C(C)=C[C@H]1C(=O)c1c(O)c(-c2ccc(OCC#N)cc2)c[nH]c1=O | 1 (≈ 2.12 µM) | 0.006 (≈ 0.0127 µM) | 0.125 (≈ 0.265 µM)
C/C=C/[C@@H]1[C@H]2C[C@@H](COC(=O)CC)CC[C@@H]2C(C)=C[C@H]1C(=O)c1c(O)c(-c2ccc(OC(=O)CC)cc2)c[nH]c1=O | > 0.8 | 0.01 (≈ 0.0178 µM) | 0.125 (≈ 0.223 µM)
C/C=C/[C@@H]1[C@H]2C[C@@H](C)CC[C@@H]2[C@](C)(O)[C@H]2Oc3ncc(-c4ccc(O)cc4)c(O)c3C(=O)[C@@H]12 | 1 (≈ 2.22 µM) | > 1 | > 5
C/C=C/[C@@H]1[C@H]2C[C@@H](C)CC[C@@H]2C(C)=C[C@H]1C(=O)c1c(O)c(-c2ccc(OC(=O)Nc3ccc(Br)cc3)cc2)c[nH]c1=O | 1 (≈ 1.58 µM) | 0.2 (≈ 0.317 µM) | 5 (≈ 7.92 µM)
C/C=C/[C@@H]1[C@H]2C[C@@H](C)CC[C@@H]2C(C)=C[C@H]1C(=O)c1c(O)c(-c2ccc(OC(=O)c3ccsc3)cc2)c[nH]c1=O | > 1 | 0.005 (≈ 0.0092 µM) | 1 (≈ 1.84 µM)
C/C=C/[C@@H]1[C@H]2C[C@@H](CO)CC[C@@H]2C(C)=C[C@H]1C(=O)c1c(O)c(-c2ccc(O)cc2)c[nH]c1=O | 0.4 (≈ 0.89 µM) | 0.4 (≈ 0.89 µM) | 0.25 (≈ 0.556 µM)
C/C=C/[C@@H]1[C@H]2C[C@@H](C)CC[C@@H]2C(C)=C[C@H]1C(=O)c1c(OC)c(-c2ccc(OC)cc2)cn(C)c1=O | – | 1 (≈ 2.1 µM) | > 1
C/C=C/c1c(C(=O)c2c(O)c(-c3ccc(O)cc3)c[nH]c2=O)cc(C)c2c1C[C@@H](C)CC2 | – | – | > 1
C/C=C/[C@H]1[C@@H]2C(=O)c3c(ncc(-c4ccc(O)cc4)c3O)O[C@@H]2C(C)=C2CC[C@H](C)C[C@@H]21 | – | > 1 | > 1
C/C=C/[C@@H]1[C@H]2C[C@@H](C)CC[C@@H]2C(C)=C[C@H]1C(=O)c1c(O)c(-c2ccc(OC)cc2)cn(C)c1=O | – | 0.008 (≈ 0.0173 µM) | > 1
